According to PubChem BioAssay AID1259407 (Chemical Carcinogenesis Research Information System (CCRIS), 2018):
Active and inactive are the calls of the source. No rule for the calls is given here.

Tested on: CCRIS mutagenicity, Ames/micronucleus/aberration tests
Test: CCRIS mutagenicity studies
[1] = Test System: AMES SALMONELLA TYPHIMURIUM, Strain/Indicator: TA98, Metabolic Activation: NONE, Method: PREINCUBATION
[2] = Test System: AMES SALMONELLA TYPHIMURIUM, Strain/Indicator: TA98, Metabolic Activation: NONE, Method: STANDARD PLATE
[3] = Test System: AMES SALMONELLA TYPHIMURIUM, Strain/Indicator: TA100, Metabolic Activation: NONE, Method: STANDARD PLATE
[4] = Test System: AMES SALMONELLA TYPHIMURIUM, Strain/Indicator: TA1535, Metabolic Activation: NONE, Method: STANDARD PLATE
[5] = Test System: AMES SALMONELLA TYPHIMURIUM, Strain/Indicator: TA1537, Metabolic Activation: NONE, Method: STANDARD PLATE

SMILES: COC(=O)/C(C#N)=C/c1ccco1
- mutagenic call [1]: inactive; negative

SMILES: C/C(=C(/OCCOc1ccc(Cl)cc1)c1ccc(Cl)cc1Cl)n1ccnc1
- mutagenic call [2]: inactive; negative
- mutagenic call (Test System: AMES SALMONELLA TYPHIMURIUM, Strain/Indicator: TA98, Metabolic Activation: RAT, LIVER, S-9, PHENOBARBITAL AND 5,6-BENZOFLAVONE, Method: STANDARD PLATE): inactive; negative
- mutagenic call [3]: inactive; negative
- mutagenic call (Test System: AMES SALMONELLA TYPHIMURIUM, Strain/Indicator: TA100, Metabolic Activation: RAT, LIVER, S-9, PHENOBARBITAL AND 5,6-BENZOFLAVONE, Method: STANDARD PLATE): inactive; negative
- mutagenic call [4]: inactive; negative
- mutagenic call (Test System: AMES SALMONELLA TYPHIMURIUM, Strain/Indicator: TA1535, Metabolic Activation: RAT, LIVER, S-9, PHENOBARBITAL AND 5,6-BENZOFLAVONE, Method: STANDARD PLATE): inactive; negative
- mutagenic call [5]: inactive; negative
- mutagenic call (Test System: AMES SALMONELLA TYPHIMURIUM, Strain/Indicator: TA1537, Metabolic Activation: RAT, LIVER, S-9, PHENOBARBITAL AND 5,6-BENZOFLAVONE, Method: STANDARD PLATE): inactive; negative
- mutagenic call (Test System: E. COLI, Strain/Indicator: WP2 UVRA, Metabolic Activation: NONE, Method: STANDARD PLATE): inactive; negative
- mutagenic call (Test System: E. COLI, Strain/Indicator: WP2 UVRA, Metabolic Activation: RAT, LIVER, S-9, PHENOBARBITAL AND 5,6-BENZOFLAVONE, Method: STANDARD PLATE): inactive; negative

SMILES: [Cr]
- mutagenic call [2]: active; positive
- mutagenic call (Test System: AMES SALMONELLA TYPHIMURIUM, Strain/Indicator: TA98, Metabolic Activation: RAT, LIVER, S-9, PHENOBARBITAL, Method: STANDARD PLATE): inactive; negative
- mutagenic call (Test System: AMES SALMONELLA TYPHIMURIUM, Strain/Indicator: TA102, Metabolic Activation: NONE, Method: STANDARD PLATE): inactive; negative
- mutagenic call (Test System: AMES SALMONELLA TYPHIMURIUM, Strain/Indicator: TA102, Metabolic Activation: RAT, LIVER, S-9, PHENOBARBITAL, Method: STANDARD PLATE): inactive; negative
- mutagenic call [4]: active; positive
- mutagenic call (Test System: AMES SALMONELLA TYPHIMURIUM, Strain/Indicator: TA1535, Metabolic Activation: RAT, LIVER, S-9, PHENOBARBITAL, Method: STANDARD PLATE): inactive; negative
- mutagenic call [5]: inactive; negative
- mutagenic call (Test System: AMES SALMONELLA TYPHIMURIUM, Strain/Indicator: TA1537, Metabolic Activation: RAT, LIVER, S-9, PHENOBARBITAL, Method: STANDARD PLATE): inactive; negative

SMILES: O=C1c2ccccc2C(=O)C1c1ccc2ccccc2n1
- mutagenic call (Test System: AMES SALMONELLA TYPHIMURIUM, Strain/Indicator: TA97, Metabolic Activation: HAMSTER, LIVER, S-9, AROCLOR 1254 (10%), Method: PREINCUBATION): inactive; negative
- mutagenic call (Test System: AMES SALMONELLA TYPHIMURIUM, Strain/Indicator: TA97, Metabolic Activation: HAMSTER, LIVER, S-9, AROCLOR 1254 (30%), Method: PREINCUBATION): inactive; negative
- mutagenic call (Test System: AMES SALMONELLA TYPHIMURIUM, Strain/Indicator: TA97, Metabolic Activation: NONE, Method: PREINCUBATION): inactive; negative
- mutagenic call (Test System: AMES SALMONELLA TYPHIMURIUM, Strain/Indicator: TA97, Metabolic Activation: RAT, LIVER, S-9, AROCLOR 1254 (10%), Method: PREINCUBATION): inactive; negative
- mutagenic call (Test System: AMES SALMONELLA TYPHIMURIUM, Strain/Indicator: TA97, Metabolic Activation: RAT, LIVER, S-9, AROCLOR 1254 (30%), Method: PREINCUBATION): inactive; negative
- mutagenic call (Test System: AMES SALMONELLA TYPHIMURIUM, Strain/Indicator: TA98, Metabolic Activation: HAMSTER, LIVER, S-9, AROCLOR 1254 (5%), Method: PREINCUBATION): inactive; negative
- mutagenic call (Test System: AMES SALMONELLA TYPHIMURIUM, Strain/Indicator: TA98, Metabolic Activation: HAMSTER, LIVER, S-9, AROCLOR 1254 (10%), Method: PREINCUBATION): inactive; negative
- mutagenic call (Test System: AMES SALMONELLA TYPHIMURIUM, Strain/Indicator: TA98, Metabolic Activation: HAMSTER, LIVER, S-9, AROCLOR 1254 (30%), Method: PREINCUBATION): inactive; negative
- mutagenic call [1]: inactive; negative
- mutagenic call (Test System: AMES SALMONELLA TYPHIMURIUM, Strain/Indicator: TA98, Metabolic Activation: RAT, LIVER, S-9, AROCLOR 1254 (5%), Method: PREINCUBATION): inactive; negative
- mutagenic call (Test System: AMES SALMONELLA TYPHIMURIUM, Strain/Indicator: TA98, Metabolic Activation: RAT, LIVER, S-9, AROCLOR 1254 (10%), Method: PREINCUBATION): inactive; negative
- mutagenic call (Test System: AMES SALMONELLA TYPHIMURIUM, Strain/Indicator: TA98, Metabolic Activation: RAT, LIVER, S-9, AROCLOR 1254 (30%), Method: PREINCUBATION): active; positive
- mutagenic call (Test System: AMES SALMONELLA TYPHIMURIUM, Strain/Indicator: TA100, Metabolic Activation: HAMSTER, LIVER, S-9, AROCLOR 1254 (10%), Method: PREINCUBATION): inactive; negative
- mutagenic call (Test System: AMES SALMONELLA TYPHIMURIUM, Strain/Indicator: TA100, Metabolic Activation: HAMSTER, LIVER, S-9, AROCLOR 1254 (30%), Method: PREINCUBATION): active; positive
- mutagenic call (Test System: AMES SALMONELLA TYPHIMURIUM, Strain/Indicator: TA100, Metabolic Activation: NONE, Method: PREINCUBATION): inactive; negative
- mutagenic call (Test System: AMES SALMONELLA TYPHIMURIUM, Strain/Indicator: TA100, Metabolic Activation: RAT, LIVER, S-9, AROCLOR 1254 (5 OR 10%), Method: PREINCUBATION): inactive; negative
- mutagenic call (Test System: AMES SALMONELLA TYPHIMURIUM, Strain/Indicator: TA100, Metabolic Activation: RAT, LIVER, S-9, AROCLOR 1254 (30%), Method: PREINCUBATION): active; positive
- mutagenic call (Test System: AMES SALMONELLA TYPHIMURIUM, Strain/Indicator: TA1535, Metabolic Activation: HAMSTER, LIVER, S-9, AROCLOR 1254 (10%), Method: PREINCUBATION): inactive; negative
- mutagenic call (Test System: AMES SALMONELLA TYPHIMURIUM, Strain/Indicator: TA1535, Metabolic Activation: HAMSTER, LIVER, S-9, AROCLOR 1254 (30%), Method: PREINCUBATION): inactive; negative
- mutagenic call (Test System: AMES SALMONELLA TYPHIMURIUM, Strain/Indicator: TA1535, Metabolic Activation: NONE, Method: PREINCUBATION): inactive; negative
- mutagenic call (Test System: AMES SALMONELLA TYPHIMURIUM, Strain/Indicator: TA1535, Metabolic Activation: RAT, LIVER, S-9, AROCLOR 1254 (10%), Method: PREINCUBATION): inactive; negative
- mutagenic call (Test System: AMES SALMONELLA TYPHIMURIUM, Strain/Indicator: TA1535, Metabolic Activation: RAT, LIVER, S-9, AROCLOR 1254 (30%), Method: PREINCUBATION): inactive; negative
- mutagenic call (Test System: AMES SALMONELLA TYPHIMURIUM, Strain/Indicator: TA1537 R+, Metabolic Activation: NONE, Method: STANDARD PLATE): active; positive
- mutagenic call (Test System: AMES SALMONELLA TYPHIMURIUM, Strain/Indicator: TA1537 R+, Metabolic Activation: RAT, LIVER, S-9, AROCLOR 1254, Method: STANDARD PLATE): active; positive
- mutagenic call (Test System: AMES SALMONELLA TYPHIMURIUM, Strain/Indicator: TA1538, Metabolic Activation: HAMSTER, LIVER, S-9, AROCLOR 1254 (30%), Method: PREINCUBATION): active; positive
- mutagenic call (Test System: AMES SALMONELLA TYPHIMURIUM, Strain/Indicator: TA1538, Metabolic Activation: RAT, LIVER, S-9, AROCLOR 1254 (30%), Method: PREINCUBATION): active; positive

SMILES: O=[N+]([O-])c1c2c(cc3c1ccc1ccccc13)C=C[C@@H](O)[C@@H]2O
- mutagenic call [2]: active; positive
- mutagenic call [3]: inactive; negative

SMILES: Cc1ccc(N)c(O)c1
- mutagenic call (Test System: AMES SALMONELLA TYPHIMURIUM, Strain/Indicator: TA98, Metabolic Activation: HAMSTER LIVER S-9, AROCLOR 1254, Method: STANDARD PLATE): inactive; negative
- mutagenic call [2]: inactive; negative
- mutagenic call (Test System: AMES SALMONELLA TYPHIMURIUM, Strain/Indicator: TA98, Metabolic Activation: RAT LIVER S-9, AROCLOR 1254, Method: STANDARD PLATE): inactive; negative
- mutagenic call (Test System: AMES SALMONELLA TYPHIMURIUM, Strain/Indicator: TA100, Metabolic Activation: HAMSTER LIVER S-9, AROCLOR 1254, Method: STANDARD PLATE): inactive; negative
- mutagenic call [3]: active; positive
- mutagenic call (Test System: AMES SALMONELLA TYPHIMURIUM, Strain/Indicator: TA100, Metabolic Activation: RAT LIVER S-9, AROCLOR 1254, Method: STANDARD PLATE): inactive; negative
- mutagenic call (Test System: MOUSE LYMPHOMA, Strain/Indicator: L5178Y (TK+/TK-), Metabolic Activation: NONE, Method: SUSPENSION/PLATE): active; positive. reevaluation of results: positive
- mutagenic call (Test System: MOUSE LYMPHOMA, Strain/Indicator: L5178Y (TK+/TK-), Metabolic Activation: RAT, LIVER, S-9, AROCLOR 1254, Method: SUSPENSION/PLATE): active; positive. reevaluation of results: equivocal

SMILES: [N-]=[N+]=Nc1ccc2c(Nc3ccc(NS(=O)(=O)CCCN)cc3)c3cc(N=[N+]=[N-])ccc3nc2c1
- mutagenic call [5]: active; positive
